The source of these data is PMC6009858, “Tricyclic coumarin sulphonate derivatives with alkaline phosphatase inhibitory effects: in vitro and docking studies” (Journal of Enzyme Inhibition and Medicinal Chemistry, 2018).

Data set [1] concerns the target T1, human tissue nonspecific alkaline phosphatase (h-TNAP) (Homo sapiens, UniProt P05186).
T1 sequence (P05186 18-524): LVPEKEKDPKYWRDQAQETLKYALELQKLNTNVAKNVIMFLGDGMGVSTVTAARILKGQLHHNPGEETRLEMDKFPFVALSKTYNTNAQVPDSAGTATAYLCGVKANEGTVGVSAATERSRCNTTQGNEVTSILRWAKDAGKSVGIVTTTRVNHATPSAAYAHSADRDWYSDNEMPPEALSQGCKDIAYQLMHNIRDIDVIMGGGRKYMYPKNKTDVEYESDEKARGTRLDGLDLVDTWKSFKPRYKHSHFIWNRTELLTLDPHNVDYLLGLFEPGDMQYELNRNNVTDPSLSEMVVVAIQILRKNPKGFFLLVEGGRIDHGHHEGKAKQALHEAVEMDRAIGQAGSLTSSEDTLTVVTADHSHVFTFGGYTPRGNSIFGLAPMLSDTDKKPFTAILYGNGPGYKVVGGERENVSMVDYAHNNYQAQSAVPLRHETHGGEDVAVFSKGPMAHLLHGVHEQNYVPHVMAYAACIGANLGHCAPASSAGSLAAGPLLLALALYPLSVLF
Briefly: Alkaline phosphatase inhibition assay (h-TNAP), CDP-star luminescence. Format: biochemical. The settings on record: for IC50: IC50 ± SEM, n = 3, DEA buffer; for selectivity h-TNAP over h-IAP (in words): h-TNAP versus h-IAP. The procedure:
The inhibition assay was performed by following the already reported method[18] and the inhibitory activity was measured at the final concentration of 200 µM in diethanolamine (DEA) buffer as discussed in our published article. The first step of the inhibition assay was the treatment of 10 µl of tested derivatives with 20 µl of h-TNAP (46 ng/well) or of h-IAP (57 ng/well). […] Then, 20 µl of CDP-star® substrate was added to each reaction mixture and signals were again measured as after-read, after 15–20 min of incubation. The data were scrutinised by PRISM 5.0 (GraphPad, San Diego, CA) software and the inhibitory concentration values (IC50 values) were attained as discussed earlier.

Data set [2] deals with T2, human intestinal alkaline phosphatase (h-IAP) (Homo sapiens, UniProt P09923).
T2 sequence (P09923 20-528): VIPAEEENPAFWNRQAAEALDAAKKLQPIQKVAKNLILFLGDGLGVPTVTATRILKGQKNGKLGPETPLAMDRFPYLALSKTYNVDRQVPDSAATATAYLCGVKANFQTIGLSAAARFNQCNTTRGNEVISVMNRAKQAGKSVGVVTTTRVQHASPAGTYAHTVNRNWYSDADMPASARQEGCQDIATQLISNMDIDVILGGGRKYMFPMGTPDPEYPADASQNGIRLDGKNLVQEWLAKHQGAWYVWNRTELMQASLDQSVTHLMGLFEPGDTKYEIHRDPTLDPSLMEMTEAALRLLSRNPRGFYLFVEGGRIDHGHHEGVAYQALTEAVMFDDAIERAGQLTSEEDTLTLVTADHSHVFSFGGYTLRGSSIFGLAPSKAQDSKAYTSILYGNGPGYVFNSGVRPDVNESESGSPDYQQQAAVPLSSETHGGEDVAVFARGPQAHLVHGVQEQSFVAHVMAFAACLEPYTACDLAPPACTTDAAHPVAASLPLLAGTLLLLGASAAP
The experiment in a line: Alkaline phosphatase inhibition assay (h-IAP), CDP-star luminescence. Format: biochemical. The settings on record: for IC50: IC50 ± SEM, n = 3, DEA buffer. The method, then: The inhibition assay was performed by following the already reported method[18] and the inhibitory activity was measured at the final concentration of 200 µM in diethanolamine (DEA) buffer as discussed in our published article. The first step of the inhibition assay was the treatment of 10 µl of tested derivatives with 20 µl of h-TNAP (46 ng/well) or of h-IAP (57 ng/well). The plates were incubated at 37 °C for 5–10 min, and luminescence signals were recorded by microplate reader (BioTek FLx800, Instruments, Inc., Winooski, VT). Then, 20 µl of CDP-star® substrate was added to each reaction mixture and signals were again measured as after-read, after 15–20 min of incubation. The data were scrutinised by PRISM 5.0 (GraphPad, San Diego, CA) software and the inhibitory concentration values (IC50 values) were attained as discussed earlier.

The next data set has as its system colon cancer cell line. Further details: method as in PMID 24360561, PMID 25016229, PMID 27779319. The conditions noted are these: previously reported data; cited from earlier work.
Details of data set [3]: method as in PMID 24360561, PMID 25016229, PMID 27779319. The settings on record: previously reported data; cited from earlier work.

A word on the IC50: it is the concentration that gives 50% inhibition. A lower IC50 goes with higher potency. Consider `O=c1oc2cc(OS(=O)(=O)c3ccccc3)c(Cl)cc2c2c1CCCCC2` [Compound 1z], for which, in data set [1], the IC50 came out at 5.73 ± 1.06 µM and the “selectivity h-TNAP over h-IAP (in words)” value is “selective inhibitors of h-TNAP”. Also, in data set [2], the “activity towards h-IAP (in words)” value was “inactive” and the IC50 was > 100 µM.
In the case of `COc1cc2c3c(c(=O)oc2cc1OS(=O)(=O)c1ccccc1)CCCCC3` [Compound 1s], the IC50 in data set [1] came to 1.26 ± 0.07 µM; in data set [2] it was 3.88 ± 0.32 µM.
Turning to `CCCS(=O)(=O)Oc1cc2oc(=O)c3c(c2cc1OC)CCCCC3` [Compound 1q], in data set [1], the IC50 came to 4.31 ± 0.99 µM and the “selectivity h-TNAP over h-IAP (in words)” value is “selective inhibitors of h-TNAP”. Besides, in data set [2], the IC50 was > 100 µM.
For `CCCS(=O)(=O)Oc1ccc2c3c(c(=O)oc2c1)CCCCCC3` [Compound 1k], the figures for the IC50 in data set [1] and in data set [2] were 1.91 ± 0.11 µM and 3.37 ± 0.79 µM, respectively.
Taken in the same sequence, the figures for `COc1cc2c3c(c(=O)oc2cc1OS(=O)(=O)c1ccc(C(F)(F)F)cc1)CCCCC3` [Compound 1w] were > 100 µM and > 100 µM.
Take `CS(=O)(=O)Oc1ccc2c3c(c(=O)oc2c1)CCCCC3` [Compound 1a]: the IC50 in data set [1] is 0.48 ± 0.01 µM; in data set [2] it was 1.98 ± 0.19 µM.
Taken in the same sequence, the figures for `COc1cc2c3c(c(=O)oc2cc1OS(=O)(=O)c1ccc(C)cc1)CCCCC3` [Compound 1u] were 1.65 ± 0.13 µM and 0.79 ± 0.05 µM.
With `N[C@@H](Cc1ccccc1)C(=O)O` [L-Phenylalanine, reference compound], the IC50 in data set [2] was determined as 100 µM.
`O=c1oc2cc(OS(=O)(=O)c3ccccc3)ccc2c2c1CCCCC2` [Compound 1e]: the IC50 in data set [1] came to 8.57 ± 0.73 µM; in data set [2], 1.84 ± 0.19 µM.
Taken in the same sequence, the figures for `Cc1ccc(S(=O)(=O)Oc2ccc3c4c(c(=O)oc3c2)CCCCC4)cc1` [Compound 1f] were 0.38 ± 0.01 µM and 1.94 ± 0.11 µM.
The melting point is the temperature of the solid-liquid transition. For `O=c1oc2cc(OS(=O)(=O)c3ccc(F)cc3)ccc2c2c1CCCCC2` [Compound 1i], the melting point fell in the range of 147 to 149 °C. In data set [1], this molecule returned an IC50 of 1.06 ± 0.11 µM. The same molecule came in with an IC50 in data set [2] of 0.45 ± 0.09 µM. In addition, in the data set on colon cancer cell line, the “antiproliferative effect against colon cancer cell line (in words)” value was “strongest antiproliferative derivatives”. Besides, in data set [3], the “anti-inflammatory effects (in words)” value is recorded as “maximum anti-inflammatory effects”.
With `COc1cc2c3c(c(=O)oc2cc1OS(=O)(=O)c1ccc(C(F)(F)F)cc1)CCCCCC3` [Compound 1x], the results for the IC50 in data set [1] and in data set [2] were 1.29 ± 0.12 µM and 1.63 ± 0.19 µM, respectively.
In the same order, the values of `CCCS(=O)(=O)Oc1cc2oc(=O)c3c(c2cc1OC)CCCCCC3` [Compound 1r] are 2.6 ± 0.49 µM and 0.75 ± 0.07 µM.
Taken in the same sequence, the figures for `Cc1ccc(S(=O)(=O)Oc2cc3oc(=O)c4c(c3cc2Cl)CCCCC4)cc1` [Compound 1za] were 2.22 ± 0.27 µM and 1.11 ± 0.01 µM.
Taken in the same sequence, the figures for `O=c1oc2cc(OS(=O)(=O)C3CC3)ccc2c2c1CCCCC2` [Compound 1d] were 0.98 ± 0.13 µM and 0.96 ± 0.08 µM.
As for `O=c1oc2cc(OS(=O)(=O)c3ccccc3)ccc2c2c1CCCCCC2` [Compound 1l], the IC50 in data set [1] was found to be 1.13 ± 0.21 µM; in data set [2] it was 2.82 ± 0.82 µM.
Taken in the same sequence, the figures for `CCCS(=O)(=O)Oc1ccc2c3c(c(=O)oc2c1)CCCCC3` [Compound 1c] were 1.52 ± 0.17 µM and 0.91 ± 0.06 µM.
Consider `COc1cc2c3c(c(=O)oc2cc1OS(=O)(=O)c1ccccc1)CCCCCC3` [Compound 1t], for which the IC50 in data set [1] amounted to 2.68 ± 0.18 µM; in data set [2] it was 0.83 ± 0.06 µM.
As to `Cc1ccc(S(=O)(=O)Oc2ccc3c4c(c(=O)oc3c2)CCCCCC4)cc1` [Compound 1m], the values for the IC50 in data set [1] and in data set [2] were 1.59 ± 0.16 µM and 2.12 ± 0.23 µM, respectively. Moreover, the “antiproliferative effect against colon cancer cell line (in words)” value in the data set with colon cancer cell line is recorded as “strongest antiproliferative derivatives”. In addition, the “anti-inflammatory effects (in words)” value in data set [3] is “maximum anti-inflammatory effects”.
Take `CCS(=O)(=O)Oc1ccc2c3c(c(=O)oc2c1)CCCCCC3` [Compound 1j]: the IC50 in data set [1] was 1.74 ± 0.14 µM; in data set [2], 0.84 ± 0.09 µM.
In the same order, the values of `COc1cc2c3c(c(=O)oc2cc1OS(C)(=O)=O)CCCCCC3` [Compound 1p] are 1.49 ± 0.13 µM and 1.51 ± 0.17 µM.
With `CCS(=O)(=O)Oc1ccc2c3c(c(=O)oc2c1)CCCCC3` [Compound 1b], the figures for the IC50 in data set [1] and in data set [2] were 2.13 ± 0.19 µM and 2.71 ± 0.23 µM, respectively.
Regarding `CS(=O)(=O)Oc1cc2oc(=O)c3c(c2cc1Cl)CCCCC3` [Compound 1y], the IC50 in data set [1] is > 100 µM. Also, in data set [2], the “activity towards h-IAP (in words)” value was “inactive” and the IC50 is > 100 µM.
Turning to `COc1cc2c3c(c(=O)oc2cc1OS(=O)(=O)c1ccc(C)cc1)CCCCCC3` [Compound 1v], the IC50 amounted to 0.64 ± 0.02 µM in data set [1] and 1.45 ± 0.04 µM in data set [2].
Taken in the same sequence, the figures for `COc1cc2c3c(c(=O)oc2cc1OS(C)(=O)=O)CCCCC3` [Compound 1o] were 1.21 ± 0.11 µM and 11.8 ± 1.91 µM.
